Earlier results, collected in paper PMC8843100, “Development of newly synthesised quinazolinone-based CDK2 inhibitors with potent efficacy against melanoma” (Journal of Enzyme Inhibition and Medicinal Chemistry, 2022).

Tested on: cyclin-dependent kinase2
Parameters: method as in PMID 11354366
Details: CDK2; cited from earlier work

**Q.** Which IC50 does the source give for `CC(C)(C)Nc1nc(C(F)(F)F)nc2ccc(-c3cccc(N)c3)cc12` [DIN-234325] here?
**A.** 600 ± 100 nM
